From patent publication US5880103A, “Immunomodulatory peptides” (President and Fellows of Harvard College, priority 1995, dated 1999) come the findings set out here.

For the assay, the target named is T1, HLA-DR1 (Homo sapiens, UniProt P01903+P01911, A100R/D57E/F55L/F60I/F76Y/I96L/L162R/M171V/P40L/Q125E/R42F/V115G/Y59C).
T1 construct: made in house; host or cells: Sf9 insect cells
Description: Competition of synthetic peptides against 125I-labeled HA 307-319 for binding to "empty" HLA-DR1.

`CSCC[C@H](NC(=O)[C@H](CCCNC(=N)N)NC(=O)[C@H](CCSC)NC(=O)[C@H](CCCCN)NC(=O)[C@H](CO)NC(=O)[C@@H](NC(=O)[C@@H]1CCCN1C(=O)[C@H](CCCCN)NC(=O)[C@@H]1CCCN1C(=O)[C@@H]1CCCN1C(=O)[C@H](CCCCN)NC(=O)[C@@H]1CCCN1C(=O)[C@@H](N)CC(C)C)C(C)C)C(=O)N[C@@H](C)C(=O)N[C@H](C(=O)O)[C@@H](C)O` [Ii 97-111]: the Ki (as a rule, a measure of affinity in units of concentration, obtained from inhibition or displacement) is more than 10 µM.
In the case of “Ii 107-120: invariant chain peptide named in the text as highest-affinity competitor; probably the Ii 106-120 entry of Table 2 (MRMATPLLMQALPM)”, for the setting “competitor peptides vs HA 307-319, "empty" DR1, at first approximation”, the “relative binding affinity to DR1 (in words)” value is reported as “highest affinity of all the competitor peptides measured”.
